How the values were obtained:
[1] = tested on: ENR+CD organoids (ISC to Paneth cell differentiation); experiment: Primary screen: basal (non-stimulated) lysozyme secretion LYZ.NS, 2.5-D 384-well ENR+CD organoid differentiation; assay type: cell-based, mouse; conditions: primary screen; for Z.LYZ.NS: standard z score
Source text: (§1) High-throughput screening.

[2] = tested on: ENR+CD organoids (ISC to Paneth cell differentiation); experiment: Primary screen: CCh-stimulated lysozyme secretion LYZ.S, 2.5-D 384-well ENR+CD organoid differentiation; assay type: cell-based, mouse; conditions: primary screen
Source text: as §1

[3] = tested on: ENR+CD organoids; experiment: Primary screen: ATP (CellTiter-Glo 3D, CTG) cell number/viability, 2.5-D 384-well ENR+CD organoids; conditions: primary screen; for Z.CTG: standard z score;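 on all read-outs here: compounds given at plating and again on day 3 over a 6-day differentiation from ENR+CV stem-cell-enriched precursors, ATP measured on day 6, plate median as control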
[4] = dose 0.08 uM, FC vs plate median
[5] = dose 0.40 uM, FC vs plate median
[6] = dose 2.00 uM, FC vs plate median
[7] = dose 10.00 uM, FC vs plate median
[8] = dose 0.08 uM, FC relative to plate median
[9] = dose 0.40 uM, FC relative to plate median
[10] = dose 2.00 uM, FC relative to plate median
[11] = dose 10.00 uM, FC relative to plate median

In the case of `CC(C)(F)C[C@H](N[C@@H](c1ccc(-c2ccc(S(C)(=O)=O)cc2)cc1)C(F)(F)F)C(=O)NC1(C#N)CC1` [Odanacatib (MK-0822)], the Z.LYZ.NS ([1]; dose 0.08 uM) is reported as 0.752, the Z.LYZ.NS ([1]; dose 0.40 uM) is reported as 1.409 and the Z.LYZ.NS ([1]; dose 2.00 uM) is reported as 0.212. It also gave a Z.LYZ.NS ([1]; dose 10.00 uM) of −0.307, a Dose.FC.LYZ.NS [1, 4] of 0.086 log2 fold change and a Dose.FC.LYZ.NS [1, 5] of 0.162 log2 fold change. It also gave a Dose.FC.LYZ.NS [1, 6] of 0.024 log2 fold change, a Dose.FC.LYZ.NS [1, 7] of −0.035 log2 fold change and a Dose.FC.LYZ.S [2, 4] of 0.091 log2 fold change. The Dose.FC.LYZ.S [2, 5] was 0.170 log2 fold change, the Dose.FC.LYZ.S [2, 6] was 0.036 log2 fold change and the Dose.FC.LYZ.S [2, 7] was −0.074 log2 fold change. It also gave a Z.CTG ([3]; dose 0.08 uM) of 0.285, a Z.CTG ([3]; dose 0.40 uM) of 0.496 and a Z.CTG ([3]; dose 2.00 uM) of −0.020. For the same compound, the Z.CTG ([3]; dose 10.00 uM) was 0.015, the Dose.FC.CTG [3, 4] was 0.119 log2 fold change and the Dose.FC.CTG [3, 5] was 0.208 log2 fold change. The Dose.FC.CTG [3, 6] was −0.008 log2 fold change and the Dose.FC.CTG [3, 7] was 0.006 log2 fold change.

In the case of `O=C1NC(=O)/C(=C/c2cccc(C(F)(F)F)c2)S1` [SMI-4a], the Dose.FC.LYZ.NS [1, 8] is reported as 0.022 log2 fold change, the Z.LYZ.NS ([1]; dose 0.08 uM) is reported as 0.188 and the Dose.FC.LYZ.NS [1, 9] is reported as −0.060 log2 fold change. The Z.LYZ.NS ([1]; dose 0.40 uM) was −0.524, the Dose.FC.LYZ.NS [1, 10] was 0.032 log2 fold change and the Z.LYZ.NS ([1]; dose 2.00 uM) was 0.283. It also gave a Dose.FC.LYZ.NS [1, 11] of −0.074 log2 fold change, a Z.LYZ.NS ([1]; dose 10.00 uM) of −0.643 and a Dose.FC.LYZ.S [2, 8] of 0.036 log2 fold change. It also gave a Dose.FC.LYZ.S [2, 9] of −0.063 log2 fold change, a Dose.FC.LYZ.S [2, 10] of −0.042 log2 fold change and a Dose.FC.LYZ.S [2, 11] of −0.134 log2 fold change. It also gave a Dose.FC.CTG [3, 8] of −0.153 log2 fold change, a Z.CTG ([3]; dose 0.08 uM) of −0.366 and a Dose.FC.CTG [3, 9] of −0.317 log2 fold change. It also gave a Z.CTG ([3]; dose 0.40 uM) of −0.758, a Dose.FC.CTG [3, 10] of −0.332 log2 fold change and a Z.CTG ([3]; dose 2.00 uM) of −0.793. It also gave a Dose.FC.CTG [3, 11] of −0.327 log2 fold change and a Z.CTG ([3]; dose 10.00 uM) of −0.781.

`Nc1ccc(C(=O)[O-])c(O)c1.[Na+]` [Sodium 4-Aminosalicylate] showed a Dose.FC.LYZ.NS [1, 8] of 0.080 log2 fold change, a Z.LYZ.NS ([1]; dose 0.08 uM) of 0.695 and a Dose.FC.LYZ.NS [1, 9] of 0.041 log2 fold change. It also gave a Z.LYZ.NS ([1]; dose 0.40 uM) of 0.354, a Dose.FC.LYZ.NS [1, 10] of 0.156 log2 fold change and a Z.LYZ.NS ([1]; dose 2.00 uM) of 1.354. It also gave a Dose.FC.LYZ.NS [1, 11] of 0.091 log2 fold change, a Z.LYZ.NS ([1]; dose 10.00 uM) of 0.796 and a Dose.FC.LYZ.S [2, 8] of 0.162 log2 fold change. For the same compound, the Dose.FC.LYZ.S [2, 9] was 0.050 log2 fold change, the Dose.FC.LYZ.S [2, 10] was 0.099 log2 fold change and the Dose.FC.LYZ.S [2, 11] was 0.143 log2 fold change. It also gave a Dose.FC.CTG [3, 8] of 0.119 log2 fold change, a Dose.FC.CTG [3, 9] of 0.204 log2 fold change and a Dose.FC.CTG [3, 10] of 0.038 log2 fold change. It also gave a Dose.FC.CTG [3, 11] of 0.247 log2 fold change.

With `COc1c(O)cc2c(c1O)[C@@H]1O[C@H](CO)[C@@H](O)[C@H](O)[C@H]1OC2=O` [Bergenin] the Dose.FC.LYZ.NS ([1]; dose 0.08 uM) was 0.164 log2 fold change, the “Z.LYZ.NS (standard z score)” value ([1]; dose 0.08 uM) was 1.432 and the Dose.FC.LYZ.NS ([1]; dose 0.40 uM) was 0.098 log2 fold change. For the same compound, the “Z.LYZ.NS (standard z score)” value ([1]; dose 0.40 uM) was 0.852, the Dose.FC.LYZ.NS ([1]; dose 2.00 uM) was 0.080 log2 fold change and the “Z.LYZ.NS (standard z score)” value ([1]; dose 2.00 uM) was 0.699. The Dose.FC.LYZ.NS ([1]; dose 10.00 uM) was 0.103 log2 fold change, the “Z.LYZ.NS (standard z score)” value ([1]; dose 10.00 uM) was 0.898 and the Dose.FC.LYZ.S ([2]; dose 0.08 uM) was 0.198 log2 fold change. It also gave a Dose.FC.LYZ.S ([2]; dose 0.40 uM) of 0.108 log2 fold change, a Dose.FC.LYZ.S ([2]; dose 2.00 uM) of 0.125 log2 fold change and a Dose.FC.LYZ.S ([2]; dose 10.00 uM) of 0.144 log2 fold change. It also gave a Dose.FC.CTG ([3]; dose 0.08 uM) of 0.288 log2 fold change, a Dose.FC.CTG ([3]; dose 0.40 uM) of 0.245 log2 fold change and a Dose.FC.CTG ([3]; dose 2.00 uM) of 0.205 log2 fold change. The Dose.FC.CTG ([3]; dose 10.00 uM) was 0.344 log2 fold change.

Source: patent publication US20220323406A1, “METHODS AND COMPOSITIONS FOR DIFFERENTIATING STEM CELLS” (Massachusetts Institute of Technology, priority 2019, published 2022)
